The text below walks through data of US20220267271A1, “WNT ACTIVATORS AND METHODS OF USE” (MAYO FOUNDATION FOR MEDICAL EDUCATION AND RESEARCH, priority 2019, published 2022).

One series concerns LRP6. Nature of the series: Endogenous LRP6 expression in N2a cells by Western blotting. The following applies: 0.8 and 1.6 μM, 24 h. It is filed as cell-based. As for the experimental part: (A) HT1080 cells stably transduced with human LRP6 with HA tag were treated with niciosamide (1 μM) and other compounds as noted (1 μM) for 24 hr. The levels of HA-LRP6 were examined by Western blots with anti-HA antibody. All samples were also probed with anti-actin antibody to verify equal loading. This experiment is a representative of two such experiments performed with similar data. (B) N2a cells were treated with 1015 and 1011 at the indicated concentrations for 24 h. The expression levels of LRP6, β-catenin and actin were examined by Western blotting. This experiment is a representative of three such experiments performed with similar data. (C) HEK293 cells were transfected with LRP6 siRNAs, and after 8 h incubation were further transfected with Super8XTOPFlash construct and β galactosidase-expressing vector. […] The luciferase activity was then measured and normalized to β-galactosidase activity. […]
Western blotting: Cells in 6-well plates were lysed in 0.5 ml of lysis buffer (phosphate-buffered saline containing 1% Triton X-100, 1× Proteinase inhibitor cocktail Complete, and 1 mM PMSF) at 4° C. for 15 min. Equal quantities of protein were subjected to SDS-PAGE under reducing conditions. […] The immunoreactive proteins were then detected using the ECL system or the Odyssey infrared imaging system (LI-COR). […]
Background: A western blot detects proteins with antibodies after separation by electrophoresis.

In the next series the test system is S. typhimurium TA98. The series is described as follows: Ames test, bacterial reverse mutation assay, TA98. The following applies: 1011 and 1015 at 400 μM, mean ± SD, n = 3. Further details: species or system Salmonella typhimuium. The method, then:
(§1) Ames test: According to the OECD Guidelines For Testing Of Chemicals, experiments with the tested agents, positive and negative controls, were conducted in triplicates on 6 tester strains, S. typhimurium: TA98, TA100, TA1535, TA1537 and E. coli: wp2[pKM101]+wp2 uvrA mixed 1:2. Dimethyl sulfoxide (DMSO) was used as the vehicle control for all tester strains in mutagenicity assay with and without metabolic activation. Compounds with known mutagenic activity were used as the positive controls in mutagenicity assay without metabolic activation: 2-nitrofluorene (0.1 μg/plate) for TA98, 4-nitroquinoline N-oxide (0.1 μg/plate) for TA100, sodium azide (0.2 μg/plate) for TA1535, 9-aminoacridine (7.5 μg/plate) for TA1537, and 4-nitroquinoline N-oxide (0.1 μg/plate) for E. coli. 2-Aminoantracene in final concentration 0.4 μg/ml was used as the positive control (the solution of 2-aminoantracene in DMSO was prepared immediately before experiment) in test with metabolic activation. For each experiment tester strain cultures were grown overnight in Oxoid nutrient broth #2 at 37° C. with shaking at 235 rpm to a density of 1-2×10^9 colony forming units/ml (OD600˜1.5). The S9 mix, which is consist of 9000 g supernatant fraction of rat liver homogenate (S9 fraction), was prepared immediately prior to its use in experimental procedure.
(§2) The tester strain (10 μl of overnight culture) was mixed with the test agent (10 μl of the DMSO stock) and GM liquid medium (30 μl) or S9 mix (30 μl). Then, 200 μl of molten top agar supplemented with histidine/biotin (final concentration 0.05 mM) for S. typhimurium and tryptophan (final concentration 0.025 mM) for E. coli were added to the tube (top agar was kept at 44° C. to prevent hardening). The mixed suspension was poured onto the surface of a GM agar plate (2.0 ml of GM agar per plate). After the top agar solidified, the plates were inverted and incubated at 37° C. for 48 hours. The results were expressed as number of revertant colonies per plate. The final concentrations of the test compounds in the mutagenicity assay with all tester strains in both the presence and absence of S9 mix were 400 μM. All concentrations were tested in triplicates.
For orientation: The Ames test uses bacterial strains that need an amino acid and regain growth without it when mutated back.

The subject of a further series is S. typhimurium TA100. Nature of the series: Ames test, bacterial reverse mutation assay, TA100. Details: species or system Salmonella typhimuium. As to conditions: 1011 and 1015 at 400 μM, mean ± SD, n = 3. The method, then: as §1, §2
Series [1] concerns S. typhimuium and E. coli. Nature of the series: Bacterial reverse mutation test, all tested strains (summary). Details: species or system Salmonella typhimuium and Escherichia coli. As to conditions: 400 μM. The method, then: The bacterial reverse mutation test uses amino acid requiring strains of Salmonella typhimuium and Escherichia coli (E. coli) to detect chemical substances that can produce genetic damage and lead to gene mutations. The mutagenic potential of 1011 and 1015 and their metabolites was assessed by exposing bacterial strains to the compounds and evaluating at 400 μM, and evaluating the numbers of revertant colonies grown in the absence (trace quantities) of the amino acid.
Ames test: According to the OECD Guidelines For Testing Of Chemicals, experiments with the tested agents, positive and negative controls, were conducted in triplicates on 6 tester strains, S. typhimurium: TA98, TA100, TA1535, TA1537 and E. coli: wp2[pKM101]+wp2 uvrA mixed 1:2. Dimethyl sulfoxide (DMSO) was used as the vehicle control for all tester strains in mutagenicity assay with and without metabolic activation. […]
The tester strain (10 μl of overnight culture) was mixed with the test agent (10 μl of the DMSO stock) and GM liquid medium (30 μl) or S9 mix (30 μl). […] The results were expressed as number of revertant colonies per plate. […]

Series [2] has as its system E. coli strain TOP10-pTac-lux-CDABE. The series is described as follows: Bacterial cytotoxicity evaluation (luminescence). As to conditions: 6.25-400 μM, 4 h. As for the experimental part: In addition, bacterial cytotoxicity evaluation was performed using E. coli strain TOP10-pTac-lux-CDABE, expressing both luciferase (a heterodimer of LuxA and LuxB subunits) and the enzymes required for the production of luciferase substrate (LuxC, LuxD and LuxE). For the experiment, bacterial culture was grown overnight in LB medium at 37° C. with shaking at 250 rpm. The overnight culture was diluted 1:666 into fresh LB medium supplemented with 50 μg/ml kanamycin and incubated at 37° C. and 250 rpm to OD600 0.4-0.5. Serial dilutions of the test compounds in DMSO were prepared (40 mM, 20 mM, 10 mM, 5 mM, 2.5 mM, 1.25 mM, 0.625 mM) and 4 μl aliquots of each solution were transferred into 96-well plate and mixed with 96 μl of 0.9% NaCl. Then, 10 μl of the dilutions were dispensed into the appropriate wells of 384-well white screening microplate. 30 μl aliquots of freshly grown bacterial culture at OD600 of 0.4-0.5 were added to each well with compounds' dilutions (Final concentration of the test compounds were 400 μM, 200 μM, 100 μM, 50 μM, 25 μM, 12.5 μM, 6.25 μM). The plate was incubated for 4 h at 37° C. and the luminescence.

The mark [3] stands for this setting: with metabolic activation (S9 mix).

Molecules are shown by their SMILES.

As for `Nc1ccccc1NC(=O)c1ccc(C(=O)NCC2CCN2C2CCCC2)cn1` (centres unmarked) [Compound 1015], the “endogenous LRP6 expression” value in the series on LRP6 is recorded as “significantly enhanced”. In addition, the “Number of revertant colonies per plate, TA 98” value with S. typhimurium TA98 (setting [3]) was 0.7 ± 1.2 revertant colonies per plate; in the series with S. typhimurium TA98 (without metabolic activation), 1.3 ± 1.5 revertant colonies per plate. For the same compound, the “Number of revertant colonies per plate, TA100” value was 2.0 ± 1.0 revertant colonies per plate in the series with S. typhimurium TA100 (setting [3]) and 1.33 ± 0.6 revertant colonies per plate in the series on S. typhimurium TA100 (without metabolic activation). Besides, the “mutagenic effects of test compounds and their metabolites” value in series [1] is listed as “no mutagenic effects”. Further, in series [2], the “cytotoxicity for bacterial cells” value is given as “no cytotoxicity”.

Consider `CC1CCCC(C)N1CCNC(=O)c1ccc(C(=O)Nc2ccccc2N)nc1` (centres unmarked) [Compound 1011], for which, in the series on LRP6, the “endogenous LRP6 expression” value is given as “significantly enhanced”. The “Number of revertant colonies per plate, TA 98” value in the series on S. typhimurium TA98 (setting [3]) is listed as 1.7 ± 2.1 revertant colonies per plate; in the series with S. typhimurium TA98 (without metabolic activation), 1.7 ± 1.5 revertant colonies per plate. The figures for the “Number of revertant colonies per plate, TA100” value in the series on S. typhimurium TA100 (setting [3]) and in the series on S. typhimurium TA100 (without metabolic activation) were 4.7 ± 2.1 revertant colonies per plate and 4.3 ± 3.5 revertant colonies per plate, respectively. The “mutagenic effects of test compounds and their metabolites” value in series [1] was “no mutagenic effects”. Moreover, the “cytotoxicity for bacterial cells” value in series [2] is reported as “no cytotoxicity”.
